Activity calls are given as the source filed them. No cut-off for these calls is given here.
Key:
[1] = Metabolic stability in mouse plasma assessed as compound remaining at 10 uM at 60 mins by LC-MS/MS analysis; type: ADME, cell-free; details: read-out: Stability
[2] = Metabolic stability in monkey plasma assessed as compound remaining at 10 uM at 60 mins by LC-MS/MS analysis; type: ADME, cell-free, Macaca mulatta; details: rhesus monkey, read-out: Stability
[3] = Metabolic stability in human plasma assessed as compound remaining at 10 uM at 60 mins by LC-MS/MS analysis; type: ADME, cell-free; details: read-out: Stability
[4] = Chemical stability of the compound at 10 uM at pH 7.4 after 1 hr by LC-MS/MS analysis; type: physicochemical; details: buffer; for remaining at 1 h, 10 µM: pH 7.4, read-out: Stability; for Stability: pH 7.4, 1 h, 10 µM
[5] = Cmax in C57BL/6 mouse plasma assessed as 6-Diazo-5-oxo-L-norleucine levels at 1.8 mg/kg administered via oral gavage by LC-MS analysis; type: ADME, organism-based; set-up: dose 1.8 mg/kg, route oral; details: in vivo
[6] = Cmax in C57BL/6 mouse brain assessed as 6-Diazo-5-oxo-L-norleucine levels at 1.8 mg/kg administered via oral gavage by LC-MS analysis; type: ADME, organism-based; set-up: dose 1.8 mg/kg, route oral; details: in vivo
[7] = Tmax in C57BL/6 mouse plasma assessed as 6-Diazo-5-oxo-L-norleucine levels at 1.8 mg/kg administered via oral gavage by LC-MS analysis; type: ADME, organism-based; details: in vivo
[8] = AUC (0 to t) in C57BL/6 mouse plasma assessed as 6-Diazo-5-oxo-L-norleucine levels at 1.8 mg/kg administered via oral gavage measured at 10 to 90 mins post dose by LC-MS analysis; type: ADME, organism-based; details: in vivo
[9] = AUC (0 to t) in C57BL/6 mouse brain assessed as 6-Diazo-5-oxo-L-norleucine levels at 1.8 mg/kg administered via oral gavage measured at 10 to 90 mins post dose by LC-MS analysis; type: ADME, organism-based; details: in vivo
[10] = Ratio of drug level in C57BL/6 mouse brain to plasma assessed as 6-Diazo-5-oxo-L-norleucine levels at 1.8 mg/kg administered via oral gavage; type: ADME, organism-based
[11] = Cmax in pig-tail monkey plasma assessed as 6-Diazo-5-oxo-L-norleucine levels at 3.6 mg/kg, iv by LC-MS analysis; type: ADME, organism-based; set-up: dose 3.6 mg/kg, route intravenous; details: macaca nemestrina, in vivo
[12] = Tmax in pig-tail monkey plasma assessed as 6-Diazo-5-oxo-L-norleucine levels at 3.6 mg/kg, iv by LC-MS analysis; type: ADME, organism-based; details: macaca nemestrina, in vivo
[13] = AUC (0 to t) in pig-tail monkey plasma assessed as 6-Diazo-5-oxo-L-norleucine levels at 3.6 mg/kg, iv measured at 0.25 to 6 hrs post dose by LC-MS analysis; type: ADME, organism-based; set-up: time upper 6 hr, dose 3.6 mg/kg, time lower 0.25 hr, route intravenous; details: macaca nemestrina, in vivo
[14] = Prodrug activation in pig-tail monkey CSF assessed as 6-Diazo-5-oxo-L-norleucine levels at 3.6 mg/kg, iv measured at 30 mins post dose by LC-MS analysis; type: organism-based, Cerebrospinal fluid; details: macaca nemestrina, in vivo, 0.5 h
[15] = tested on: Mus musculus; assay: In vivo inhibition of glutamine metabolism in RHFoxn1nu mouse xenografted with human U87 cells assessed as accumulation of endogenous glutamine in tumor at 0.8 mg/kg, ip administered as single dose measured after 2 hrs by HPLC-MS analysis; type: functional, organism-based; details: U-87MG ATCC
[16] = Antitumor activity against human U87 cells xenografted in RHFoxn1nu mouse assessed as tumor volume at 0.8 mg/kg, ip qd for 6 days measured immediately post dose (reference value: 409 mm3); type: functional, U-87MG ATCC
[17] = Antitumor activity against human U87 cells xenografted in RHFoxn1nu mouse assessed as tumor volume at 0.8 mg/kg, ip qd for 6 days measured on day 2 post dose (reference value: 401 mm3); type: functional, U-87MG ATCC
[18] = Antitumor activity against human U87 cells xenografted in RHFoxn1nu mouse assessed as tumor volume at 0.8 mg/kg, ip qd for 6 days measured on day 4 post dose (reference value: 454 mm3); type: functional, U-87MG ATCC
[19] = Antitumor activity against human U87 cells xenografted in RHFoxn1nu mouse assessed as tumor volume at 0.8 mg/kg, ip qd for 6 days measured on day 6 post dose (reference value: 533 mm3); type: functional, U-87MG ATCC
[20] = tested on: Mus musculus; assay: Toxicity in RHFoxn1nu mouse xenografted with human U87 cells assessed as weight loss at 0.8 mg/kg, ip qd for 6 days; type: organism-based, U-87MG ATCC; details: in vivo, 144 h
[21] = tested on: Mus musculus; assay: Toxicity in RHFoxn1nu mouse xenografted with human U87 cells assessed as hunching at 0.8 mg/kg, ip qd for 6 days; type: organism-based, U-87MG ATCC; details: in vivo, 144 h
[22] = tested on: Mus musculus; assay: Toxicity in RHFoxn1nu mouse xenografted with human U87 cells assessed as ptosis at 0.8 mg/kg, ip qd for 6 days; type: organism-based, U-87MG ATCC; details: in vivo, 144 h
[23] = tested on: Mus musculus; assay: Toxicity in RHFoxn1nu mouse xenografted with human U87 cells assessed as lethargy at 0.8 mg/kg, ip qd for 6 days; type: organism-based, U-87MG ATCC; details: in vivo, 144 h
[24] = Antitumor activity against human U87 cells xenografted in RHFoxn1nu mouse assessed as reduction in tumor volume at 0.8 mg/kg, ip qd for 6 days measured 2 to 6 days post dose; type: functional, U-87MG ATCC; details: U-87 MG
[25] = Cmax in C57BL/6 mouse plasma at 0.8 mg/kg administered via oral gavage by LC-MS analysis; type: ADME, organism-based; set-up: dose 0.8 mg/kg, route oral
[26] = Cmax in C57BL/6 mouse brain at 0.8 mg/kg administered via oral gavage by LC-MS analysis; type: ADME, organism-based; set-up: dose 0.8 mg/kg, route oral; details: in vivo
[27] = Tmax in C57BL/6 mouse plasma at 0.8 mg/kg administered via oral gavage by LC-MS analysis; type: ADME, organism-based
[28] = Ratio of drug level in C57BL/6 mouse brain to plasma at 0.8 mg/kg administered via oral gavage; type: ADME, organism-based; details: read-out: BPR
[29] = Cmax in pig-tail monkey plasma at 1.6 mg/kg, iv by LC-MS analysis; type: ADME, organism-based; set-up: dose 1.6 mg/kg, route intravenous; details: macaca nemestrina
[30] = Drug uptake in pig-tail monkey CSF at 1.6 mg/kg, iv measured at 30 mins post dose by LC-MS analysis; type: ADME, organism-based, Cerebrospinal fluid; details: macaca nemestrina, in vivo, 0.5 h
[31] = in vivo; details: C57BL/6, mouse, plasma, po, 0.8 mg/kg
Description: AUC (0 to t) in C57BL/6 mouse plasma at 0.8 mg/kg administered via oral gavage measured at 10 to 90 mins post dose by LC-MS analysis

[32] = in vivo; details: macaca nemestrina, plasma, iv, 1.6 mg/kg
Description: AUC (0 to t) in pig-tail monkey plasma at 1.6 mg/kg, iv measured at 0.25 to 6 hrs post dose by LC-MS analysis

Q: With `CCC(OC(=O)N[C@@H](CCC(=O)C=[N+]=[N-])C(=O)OC)OC(=O)C(C)(C)C` (stereo partly drawn) as the compound, how does the remaining at 1 h, 10 µM [1] read?
A: 0%

Q: And the remaining at 1 h, 10 µM [2]?
A: 75%

Q: What about the remaining at 1 h, 10 µM [3] of the same compound?
A: 88%

Q: What about the remaining at 1 h, 10 µM [4] of the same compound?
A: > 90%

Q: Which remaining at 1 h, 10 µM [1] does the source give for `COC(=O)[C@H](CCC(=O)C=[N+]=[N-])NC(=O)OC(OC(=O)C(C)(C)C)C(C)C` (stereo partly drawn) here?
A: 0%

Q: And the remaining at 1 h, 10 µM [2]?
A: 61%

Q: What about the remaining at 1 h, 10 µM [3] of the same compound?
A: 91%

Q: And the remaining at 1 h, 10 µM [4]?
A: > 90%

Q: And the Cmax [5]?
A: 1500 nM

Q: What about the Cmax [6] of the same compound?
A: 0.64 nmol/g

Q: What about the Tmax [7] of the same compound?
A: 90 min

Q: What about the AUCt [8] of the same compound?
A: 1.22 µM·h

Q: What about the AUCt [9] of the same compound?
A: 0.69 nmol·h/g

Q: And the BPR [10]?
A: 0.57

Q: What about the Cmax [11] of the same compound?
A: 2230 nM

Q: And the Tmax [12]?
A: 15 min

Q: What about the AUCt [13] of the same compound?
A: 5.71 µM·h

Q: What about the Drug metabolism [14] of the same compound?
A: 1.43 nmol/g

Q: For `CCOC(=O)[C@H](CCC(=O)C=[N+]=[N-])NC(=O)[C@@H](N)CC(C)C`, which remaining at 1 h, 10 µM [1] is on record?
A: 0%

Q: What about the remaining at 1 h, 10 µM [2] of the same compound?
A: 1%

Q: And the remaining at 1 h, 10 µM [3]?
A: 1%

Q: What about the remaining at 1 h, 10 µM [4] of the same compound?
A: > 90%

Q: Which results are given for `[N-]=[N+]=CC(=O)CC[C@H](N)C(=O)O` [6-DIAZO-5-OXO-L-NORLEUCINE]?
A: inhibition [15]: Active; Activity [16]: 504 mm3; Activity [17]: 364 mm3; Activity [18]: 256 mm3; Activity [19]: 251 mm3; Activity [20]: 12%; Activity [21]: Toxic; Activity [22]: Toxic; Activity [23]: Toxic; inhibition in vivo at 0.8 mg/kg [24]: > 50%; Cmax [25]: 2200 nM; Cmax [26]: 0.56 nmol/g; Tmax [27]: 10.2 min; Kp [28]: 0.46; Cmax [29]: 12600 nM; Drug uptake [30]: 0.33 nmol/g; AUC(0-t) [31]: 1.25 µM·h; AUC(0-t) [32]: 42.7 µM·h

Q: Which results are given for `CC(C)C[C@H](N)C(=O)N[C@@H](CCC(=O)C=[N+]=[N-])C(=O)OC(C)C`?
A: remaining at 1 h, 10 µM [1]: 0%; remaining at 1 h, 10 µM [2]: 1%; remaining at 1 h, 10 µM [3]: 1%; remaining at 1 h, 10 µM [4]: > 90%

Q: For `CC(C)OC(=O)[C@H](CCC(=O)C=[N+]=[N-])NC(=O)OCOC(=O)C(C)(C)C`, which remaining at 1 h, 10 µM [1] is on record?
A: 0%

Q: What about the remaining at 1 h, 10 µM [2] of the same compound?
A: 0%

Q: What about the remaining at 1 h, 10 µM [3] of the same compound?
A: 9%

Q: What about the remaining at 1 h, 10 µM [4] of the same compound?
A: > 90%

Q: For `CC(C)OC(=O)[C@@H](N)CCC(=O)C=[N+]=[N-]`, which Stability [4] is on record?
A: Unstable

Q: Which remaining at 1 h, 10 µM [1] does the source give for `CCOC(=O)[C@H](CCC(=O)C=[N+]=[N-])NC(=O)OCc1oc(=O)oc1C` here?
A: 0%

Q: And the remaining at 1 h, 10 µM [2]?
A: 0%

Q: And the remaining at 1 h, 10 µM [3]?
A: 0%

Q: What about the remaining at 1 h, 10 µM [4] of the same compound?
A: > 90%

Q: Which remaining at 1 h, 10 µM [1] does the source give for `Cc1oc(=O)oc1COC(=O)N[C@@H](CCC(=O)C=[N+]=[N-])C(=O)OC(C)C` here?
A: 0%

Q: What about the remaining at 1 h, 10 µM [2] of the same compound?
A: 0%

Q: What about the remaining at 1 h, 10 µM [3] of the same compound?
A: 0%

Q: And the remaining at 1 h, 10 µM [4]?
A: > 90%

Q: With `CCOC(=O)[C@@H](N)CCC(=O)C=[N+]=[N-]` as the compound, how does the Stability [4] read?
A: Unstable

— ChEMBL document CHEMBL3856236, “Discovery of 6-Diazo-5-oxo-l-norleucine (DON) Prodrugs with Enhanced CSF Delivery in Monkeys: A Potential Treatment for Glioblastoma” (J Med Chem, 2016)
